In the assay the target is T1, Kv7.2 (Homo sapiens, UniProt O43526).
T1 construct: expressed in transfected cells
The assay is described as follows: Activation of Kv7.2 (in vitro assay, concentration response curve). It counts as cell-based. Conditions: for Emax: Kv7.2 activation max %; for pEC50: activation of Kv7.2. The protocol:
The term “EC50” in this application is defined as: the agonistic effect of a compound can be determined by testing the compound in an in vitro assay as described herein, whereby the effect of the compound is measured across a range of compound concentrations. The resulting data is plotted as a concentration response curve, which typically follows a sigmoidal function, whereby the concentration of the compound is plotted on the x axis and the response (agonistic effect) is plotted on the y axis. The term “EC50” is the “half maximal effective concentration” and denotes the concentration of a particular compound required to obtain 50% of the maximum response (Emax) which is observed for that compound in the given in vitro assay.

Drawing on patent US20250074901A1, “NOVEL HETEROARYL COMPOUNDS” (ICAGEN, LLC, priority 2021, published 2025), this text covers Emax and EC50 for 29 compounds.

The structures appear in SMILES notation. pEC50: −log10 of the molar value.

A word on the Emax: it is the greatest response seen or fitted, relative to the assay's reference. One may read the pEC50 as −log10 of the EC50, conventionally taken in molar units. A lower pEC50 goes with a large EC50. As for `O=C(NCc1ccnc(-n2cccn2)c1)N[C@@H]1C[C@H]2CC[C@@H]1C2` (racemic) [Example 7, 1-[(2-pyrazol-1-ylpyridin-4-yl)methyl]-3-[rac-(1R,2R,4S)-2-bicyclo[2.2.1]heptanyl]urea], the Emax amounted to 101% and the pEC50 was 6.23.
With `O=C(NCc1ccnc(OC(F)F)c1)N[C@@H]1C[C@H]2CC[C@@H]1C2` (racemic) [Example 12, 1-[[2-(difluoromethoxy)pyridin-4-yl]methyl]-3-[rac-(1R,2R,4S)-2-bicyclo[2.2.1]heptanyl]urea], the Emax was 81% and the pEC50 was 7.05.
Turning to `COc1cc(CNC(=O)N[C@@H]2C[C@H]3CC[C@@H]2C3)ccn1` (racemic) [Example 14, 1-[(2-methoxypyridin-4-yl)methyl]-3-[rac-(1R,2R,4S)-2-bicyclo[2.2.1]heptanyl]urea], the Emax amounted to 86% and the pEC50 is 5.74.
On to `O=C(NCc1ccnc(-n2cnc(C(F)(F)F)c2)c1)N[C@H]1C[C@@H]2CC[C@H]1C2` (racemic) [Example 26, 1-[rac-(1R,2R,4S)-2-bicyclo[2.2.1]heptanyl]-3-[[2-[4-(trifluoromethyl)imidazol-1-yl]pyridin-4-yl]methyl]urea], for which the Emax was found to be 65% and the pEC50 was 6.42.
Taken in the same sequence, the figures for `O=C(NCc1ccnc(Br)c1)N[C@H]1C[C@@H]2CC[C@H]1C2` (racemic) [Example 27, 1-[(2-bromopyridin-4-yl)methyl]-3-[rac-(1R,2R,4S)-2-bicyclo[2.2.1]heptanyl]urea] were 76% and 5.57.
For `O=C(NCc1ccnc(-c2cnco2)c1)N[C@H]1C[C@@H]2CC[C@H]1C2` (racemic) [Example 28, 1-[[2-(1,3-oxazol-5-yl)pyridin-4-yl]methyl]-3-[rac-(1R,2R,4S)-2-bicyclo[2.2.1]heptanyl]urea], the Emax was 76% and the pEC50 was 5.08.
In the same order, the values of `CC(F)(F)c1cc(CNC(=O)N[C@H]2C[C@@H]3CC[C@H]2C3)ccn1` (racemic) [Example 33, 1-[[2-(1,1-difluoroethyl)pyridin-4-yl]methyl]-3-[rac-(1R,2R,4S)-2-bicyclo[2.2.1]heptanyl]urea] are 80% and 6.59.
In the same order, the values of `N#Cc1cc(CNC(=O)N[C@H]2C[C@@H]3CC[C@H]2C3)ccn1` (racemic) [Example 34, 1-[(2-cyanopyridin-4-yl)methyl]-3-[rac-(1R,2R,4S)-2-bicyclo[2.2.1]heptanyl]urea] are 49% and 5.56.
In the same order, the values of `O=C(NCc1ccnc(C(F)F)c1)N[C@H]1C[C@@H]2CC[C@H]1C2` (racemic) [Example 35, 1-[[2-(difluoromethyl)pyridin-4-yl]methyl]-3-[rac-(1R,2R,4S)-2-bicyclo[2.2.1]heptanyl]urea] are 67% and 5.94.
Take `O=C(NCc1ccnc(C(F)(F)F)c1)N[C@H]1C[C@@H]2CC[C@H]1C2` (racemic) [Example 36, 1-[rac-(1R,2R,4S)-2-bicyclo[2.2.1]heptanyl]-3-[[2-(trifluoromethyl)pyridin-4-yl]methyl]urea]: the Emax was 64% and the pEC50 is 6.27.
In the same order, the values of `O=C(NCc1ccnc(OC(F)F)c1)N[C@@H]1CC[C@H](C(F)(F)F)C1` (racemic) [Example 59, 1-[[2-(difluoromethoxy)pyridin-4-yl]methyl]-3-[rac-(1R,3S)-3-(trifluoromethyl)cyclopentyl]urea] are 65% and 6.96.
In the same order, the values of `O=C(NCc1ccnc(OC(F)F)c1)NC1CCC2C1C2(F)F` (racemic) [Example 73, 1-[[2-(difluoromethoxy)pyridin-4-yl]methyl]-3-[rac-(1R,5R)-6,6-difluoro-2-bicyclo[3.1.0]hexanyl]urea] are 49% and 6.60.
In the same order, the values of `O=C(NCc1ccnc(OC(F)F)c1)NC1CC2C(C1)C2(F)F` (racemic) [Example 74, 1-[[2-(difluoromethoxy)pyridin-4-yl]methyl]-3-[rac-(1R,5S)-6,6-difluoro-3-bicyclo[3.1.0]hexanyl]urea] are 58% and 6.77.
Compound `O=C(NCc1ccnc(OCC(F)(F)F)c1)N[C@H]1CC[C@@H](C(F)(F)F)C1` (racemic) [Example 79, 1-[rac-(1R,3S)-3-(trifluoromethyl)cyclopentyl]-3-[[2-(2,2,2-trifluoroethoxy)pyridin-4-yl]methyl]urea] gave a maximal response (Emax) of 55% and a negative logarithm of the EC50 (pEC50) of 7.00.
In the same order, the values of `CC1(C)C[C@H](NC(=O)NCc2ccnc(OC(F)F)c2)[C@@H]1O` (racemic) [Example 81, 1-[[2-(difluoromethoxy)pyridin-4-yl]methyl]-3-[rac-(1R,2S)-2-hydroxy-3,3-dimethylcyclobutyl]urea] are 73% and 5.87.
Taken in the same sequence, the figures for `CC1(C)C[C@H](NC(=O)NCc2ccnc(-n3cnc(C(F)(F)F)c3)c2)[C@@H]1O` (racemic) [Example 99, 1-[rac-(1R,2S)-2-hydroxy-3,3-dimethylcyclobutyl]-3-[[2-[4-(trifluoromethyl)imidazol-1-yl]pyridin-4-yl]methyl]urea] were 44% and 5.19.
Taken in the same sequence, the figures for `CC1(C)CC[C@H](O)[C@@H](NC(=O)NCc2ccnc(OC(F)F)c2)C1` (racemic) [Example 101, 1-[[2-(difluoromethoxy)pyridin-4-yl]methyl]-3-[rac-(1R,2R)-2-hydroxy-5,5-dimethylcyclohexyl]urea] were 72% and 5.92.
As for `O=C(NCc1ccnc(OC(F)F)c1)N[C@@H]1C[C@H]2CC[C@@H]1O2` (racemic) [Example 102, 1-[[2-(difluoromethoxy)pyridin-4-yl]methyl]-3-[rac-(1R,2S,4S)-7-oxabicyclo[2.2.1]heptan-2-yl]urea], the maximal response (Emax) worked out at 71% and the pEC50 was 5.23.
Taken in the same sequence, the figures for `O=C(NCc1ccnc(OC(F)F)c1)N[C@H]1C[C@@H]2C[C@H]1[C@H](O)C2` (racemic) [Example 107, 1-[[2-(difluoromethoxy)pyridin-4-yl]methyl]-3-[rac-(1R,2S,4S,6R)-6-hydroxy-2-bicyclo[2.2.1]heptanyl]urea] were 95% and 5.77.
The compound `O=C(NCc1ccnc(OC(F)F)c1)N[C@H]1[C@@H](O)[C@H]2CCC[C@H]21` (racemic) [Example 111, 1-[[2-(difluoromethoxy)pyridin-4-yl]methyl]-3-[rac-(1R,5S,6S,7R)-7-hydroxy-6-bicyclo[3.2.0]heptanyl]urea] had an Emax of 63% and a pEC50 of 5.56.
Taken in the same sequence, the figures for `O=C(NCc1ccnc(OC(F)F)c1)N[C@H]1C[C@H]2CCC[C@@]2(CO)C1` (racemic) [Example 112, 1-[[2-(difluoromethoxy)pyridin-4-yl]methyl]-3-[rac-(2R,3aS,6aS)-6a-(hydroxymethyl)-2,3,3a,4,5,6-hexahydro-1H-pentalen-2-yl]urea] were 49% and 5.31.
Compound `O=C(NCc1ccnc(OC(F)F)c1)N[C@H]1CCC[C@H]1O` (racemic) [Example 118, 1-[[2-(difluoromethoxy)pyridin-4-yl]methyl]-3-[rac-(1R,2S)-2-hydroxycyclopentyl]urea] gave an Emax of 63% and a negative-log EC50 (pEC50) of 5.10.
Taken in the same sequence, the figures for `O=C(NCc1ccnc(OC(F)F)c1)NC[C@@]12CCC[C@@H]1CCO2` (racemic) [Example 120, 1-[[2-(difluoromethoxy)pyridin-4-yl]methyl]-3-[[rac-(3aR,6aR)-2,3,3a,4,5,6-hexahydrocyclopenta[b]furan-6a-yl]methyl]urea] were 53% and 5.46.
The compound `O=C(NCc1ccnc(OC(F)F)c1)N[C@@H]1CC[C@@H]1F` (racemic) [Example 123, 1-[[2-(difluoromethoxy)pyridin-4-yl]methyl]-3-[rac-(1R,2S)-2-fluorocyclobutyl]urea] had an Emax of 40% and a pEC50 of 5.38.
In the same order, the values of `O=C(NCc1ccnc(OC(F)F)c1)N[C@@H]1CCC[C@H](C(F)(F)F)C1` (racemic) [Example 138, 1-[[2-(difluoromethoxy)pyridin-4-yl]methyl]-3-[rac-(1R,3S)-3-(trifluoromethyl)cyclohexyl]urea] are 40% and 7.00.
Regarding `O=C1CC2CCC(C1)C2NC(=O)NCc1ccnc(OC(F)F)c1` (racemic) [Example 139, 1-[[2-(difluoromethoxy)pyridin-4-yl]methyl]-3-[rac-(1R,5S)-3-oxo-8-bicyclo[3.2.1]octanyl]urea], the maximum response (Emax) turned out to be 61% and the pEC50 was 5.28.
In turn, `C[C@]1(O)CCCC[C@@H]1NC(=O)NCc1ccnc(OC(F)F)c1` (racemic) [Example 148, 1-[[2-(difluoromethoxy)pyridin-4-yl]methyl]-3-[rac-(1R,2R)-2-hydroxy-2-methylcyclohexyl]urea] gave an Emax of 64% and a negative logarithm of the EC50 (pEC50) of 5.29.
Taken in the same sequence, the figures for `O=C(NCc1ccnc(OC(F)F)c1)N[C@@H]1CCC(F)(F)C[C@H]1O` (racemic) [Example 154, 1-[[2-(difluoromethoxy)pyridin-4-yl]methyl]-3-[rac-(1R,2R)-4,4-difluoro-2-hydroxycyclohexyl]urea] were 60% and 5.67.
For `O=C(NCc1ccnc(OC(F)F)c1)NC1C[C@H]2C[C@@H]1CC2(F)F` (mixture of isomers) [Example 165, 1-[[2-(difluoromethoxy)pyridin-4-yl]methyl]-3-[rac-(1R,4R)-5,5-difluoro-2-bicyclo[2.2.1]heptanyl]urea], the Emax came to 94% and the pEC50 is 6.60.
